The text below walks through data of US6413975B1, “Purine derivatives having phosphodiesterase iv inhibition activity” (Euro-Celtique, S.A., priority 1999, dated 2002).

Counter-ions that a name gives are not always drawn.

The first test has as its system Type IV PDE. Nature of the test: PDE IV inhibition: hydrolysis of [3H]-cyclic AMP by isolated Type IV PDE. The conditions noted are these: adenines, Table 4; cyclic AMP 0.2 μM; read-out: calc PDE IV IC50. Format: biochemical, bovine. The procedure:
The Type IV PDE is isolated from bovine tracheal smooth muscle using a procedure similar to that previously described by Silver, P. J., Hamel, L. T., Perrone, M. H. Bentley, R. G. Bushover, C. R., Evans, D. B.: Eur. J. Pharmacol. 150:85,1988.(1). Briefly, smooth muscle from bovine trachea is minced and homogenized using a polytron in 10 volumes of an extraction buffer containinhg 10 mM Tris-acetate (pH 7.5), 2 mM magnesium chloride, 1 mM dithiothreitol and 2,000 units/ml of aprotinin. This and all subsequent procedures are performed at 0-4° C. The homogenate is sonicated and then centrifiged at 48,000×g for 30 minutes. The resulting supernatant is applied to a DEAE Trisacryl M column previously equilibrated with sodium acetate and dithiothreitol. After applications of the sample, the column is washed with sodium acetate/dithiothreitol, after which the different forms of PDE are eluted from the column using a linear Tris-HCl/NaCl gradient. Fractions containing Type IV PDE are collected, dialyzed and concentrated to 14% of the original volume. The concentrated fractions are diluted to 50% with ethylene glycol and stored at -20° C.
Enzyme activity is assessed by measuring the hydrolysis of [^3H]-cyclic AMP, as described by Thompson, W. J., Teraski, W. L., Epstein, P. N., Strada, S. J.: Adv. Cyclic Nucleotide Res. 10:69, 1979. The cyclic AMP concentration used in this assay is 0.2 μM, which approximates the Km value. Protein concentration is adjusted to ensure that no more than 15% of the available substrate is hydrolyzed during the incubation period.
All test compounds are dissolved in dimethyl sulfoxide (final concentration of 2.5%). This concentration of dimethyl sulfoxide inhibits enzyme activity by approximately 10%.
As to `CCCCn1cnc(NCC)c2nc(C3CC3)nc1-2` [3-butyl-8-cyclopropyl-6-ethylamino-3H-purine hydrochloride], the IC50 was 5.99 µM.

Consider `CCCCn1cnc(NCC)c2ncnc1-2` [3-butyl-6-ethylamino-3H-purine hydrochloride], for which the IC50 is 66.4 µM.

As for `CCCn1cnc(NCC)c2nc(C3CC3)nc1-2` [8-cyclopropyl-6-ethylamino-3-propyl-3H-purine hydrochloride], the IC50 was 6.31 µM.

`CCNc1ncn(CC2CCCCC2)c2ncnc1-2` [3-cyclohexylmethyl-6-ethylamino-3H-purine hydrochloride]: the IC50 was 33 µM.

Consider `CCNc1ncn(CC2CC2)c2nc(C(C)C)nc1-2` [3-cyclopropylmethyl-8-isopropyl-6-ethylamino-3H-purine hydrochloride], for which the IC50 was 12.7 µM.

For the molecule `CCNc1ncn(CC)c2nc(C(C)C)nc1-2` [3-ethyl-8-isopropyl-6-ethylamino-3H-purine hydrochloride], the IC50 is 52.2 µM.

Still in this test, the particulars now being: adenines, Table 7; read-out: calc PDE IV IC50.
`CCNc1ncn(Cc2ccc(OC)c(OC3CCCC3)c2)c2nc(C(C)(C)O)nc1-2` [3-[(3-cyclopentyloxy-4-methoxy)benzyl]-6-ethylamino-8-[(1-hy] [3-[(3-cyclopentyloxy-4-methoxy)benzyl]-6-ethylamino-8-[(1-hydroxy-1-methyl)ethyl]-3H-purine]: the IC50 was 0.85 µM.

In the case of `COc1ccc(Cn2cnc(N)c3nc(C(C)(C)OCc4ccccc4)nc2-3)cc1OCc1ccccc1` [6-amino-3-[(3-benzyloxy-4-methoxy)benzyl]-8-[(1-benzyloxy-1-methyl)ethyl]-3H-purine], the IC50 was 3.12 µM.

On to `CCNc1ncn(Cc2ccc(OC)c(OC3CCC(O)C3)c2)c2nc(C(C)C)nc1-2` (stereo not drawn) [3-(3-((3-hydroxy)cyclopentyloxy)-4-methoxybenzyl)-6-ethylami] [3-(3-((3-hydroxy)cyclopentyloxy)-4-methoxybenzyl)-6-ethylamino-8-isopropyl-3H-purine], for which the IC50 was 1.36 µM.

Consider `CCNc1ncn(Cc2ccc(OC)c(OCCCCO)c2)c2nc(C(C)C)nc1-2` [6-ethylamino-8-isopropyl-3-[(4-methoxy-3-(4-hydroxybutoxy))benzyl]-3H-purine], for which the IC50 was 1.75 µM.

In the case of `CCNc1nc(Cc2ccc(OC)c(OC)c2)[nH]c2nc(C(C)C)nc1-2` [6-ethylamino-2-(3,4-dimethoxybenzyl)-8-isopropyl-3H-purine], the IC50 was 0.31 µM.

With `COc1ccc(Cn2cnc(NCC(F)(F)F)c3nc(C(C)C)nc2-3)cc1OC1CCCC1` [3-(3-cyclopentyloxy-4-methoxybenzyl)-6-((2,2,2-trifluoroethyl)amino)-8-isopropyl-3H-purine], the IC50 was 12.8 µM.

For `COc1ccc(Cn2cnc(N(C)C)c3nc(C(C)C)nc2-3)cc1OC1CCCC1` [3-(3-cyclopentyloxy-4-methoxybenzyl)-6-dimethylamino-8-isopropyl-3H-purine], the IC50 is 19.3 µM.

As to `CC(C)c1nc2c(NC3(O)CCCC3)ncn(Cc3ccc(Cl)cc3)c-2n1` [3-(4-chlorobenzyl)-6-((1-hydroxy)cyclopentylamino)-8-isopropyl-3H-purine], the IC50 is 4.48 µM.

Turning to `COc1ccc(Cn2cnc(N)c3nc(C(C)C)nc2-3)cc1OCc1ccccc1` [6-amino-3-((3-benzyloxy-4-methoxy)-bezyl)-8-isopropyl-3H-purine], the IC50 is 6.4 µM.

Turning to `CCNc1ncn(Cc2ccc(OC)c(OC3CCC(O)C3)c2)c2nc(C(C)C)nc1-2` (stereo not drawn) [3-[3-(3-hydroxy)cyclopentyloxy)]-4-methoxy)benzyl)-6-ethylam] [3-[3-(3-hydroxy)cyclopentyloxy)]-4-methoxy)benzyl)-6-ethylamino-8-isopropyl-3H-purine], the IC50 was 2.28 µM.

Take `CCNc1ncn(-c2ccc(Cl)cc2)c2nc(C(C)C)nc1-2` [3-(4-chlorophenyl)-6-ethylamino-8-isopropyl-3H-purine]: the IC50 is 6.5 µM.

For the molecule `CCNc1ncn(Cc2ccc(OC)c(OCc3ccccc3)c2)c2nc(C(C)C)nc1-2` [3-(3-benzyloxy-4-methoxy-benzyl)-6-ethylamino-8-isopropyl-3H-purine], the IC50 was 1.3 µM.

As for `COc1ccc(Cn2cnc(N)c3nc(C(C)C)nc2-3)cc1OC1CCCC1` [3-(3-cyclopentyloxy-4-methoxybenzyl)-6-amino-8-isopropyl-3H-purine], the IC50 was 0.82 µM.

As for `CC(C)c1nc2c(NC3CC3)ncn(Cc3ccc(Cl)cc3)c-2n1` [3-(4-chlorobenzyl)-6-cyclopropylamino-8-isopropyl-3H-purine], the IC50 was 1.69 µM.

As for `CCNc1ncn(Cc2ccc(OC)c(O[C@@H]3C[C@H]4CC[C@@H](C3)N4C)c2)c2nc(C(C)C)nc1-2` [6-Ethylamino-3-[(exo-8-methyl-8-azabicyclo(3,2,1)-octan-3-yl-oxy)-4-methoxy-benzy]-8-isopropyl-3-H-purine], the IC50 is 6.02 µM.

`CC(C)(OCc1ccc(F)cc1)c1nc2c(N)ncn(Cc3ccc4c(c3)OCO4)c-2n1` [6-amino-3-(3,4-methylenedioxybenzyl)-8-[1-(4-fluorobenzyloxy)-1-methyl-ethyl]-3H-purine]: the IC50 is 0.72 µM.

Regarding `C=C(C)c1nc2c(NCC)ncn(Cc3ccc(OC)c(OC4CCCC4)c3)c-2n1` [3-[(3-cyclopentyloxy-4-methoxy)benzyl]-6-ethylamino-8-(1-methyl-ethenyl)-3H-purine], the IC50 is 0.27 µM.

With `COc1ccc(Cn2cnc(N)c3nc(C(C)(C)OCc4ccc(F)cc4)nc2-3)cc1OC` [6-Amino-3-(3,4-dimethoxybenzyl)-8-(1-(4-fluorobenzyloxy-1-methyl-ethyl)-3H-purine Hydrochloride], the IC50 was 1.85 µM.

For the molecule `CCNc1ncn(Cc2ccc3c(c2)OCO3)c2nc(C(C)C)nc1-2` [6-ethylamino-3-(3-,4-methylenedioxybenzyl)-8-isopropyl-3H-purine], the IC50 is 0.44 µM.

On to `COc1ccc(Cn2cnc(N)c3nc(C(C)C)nc2-3)cc1OC` [6-amino-3-(3,4-dimethoxybenzyl)-8-isopropyl-3H-purine], for which the IC50 is 0.92 µM.

For `CCNc1ncn(Cc2ccc(OC)c(O)c2)c2nc(C(C)(C)O)nc1-2` [6-ethylamino-3-[(3-hydroxy-4-methoxy)benzyl]-8-[(1-hydroxy-1-methyl)ethyl]- -3H-purine], the IC50 was 6.5 µM.

As for `CCNc1ncn(Cc2ccc(OC)c(OCc3cc[n+]([O-])cc3)c2)c2nc(C(C)C)nc1-2` [6-Ethylamino-3-[(3-pyridin-4-yl-methoxy)N-oxide-4-methoxy]-8-isopropyl-3H-purine], the IC50 was 4.5 µM.

Still in this test, the particulars now being: dithioxanthines, Table 5; read-out: IC50 PDE IV.
Consider `COc1ccc(Cn2c(=S)[nH]c(=S)c3[nH]cnc32)cc1OC1CCCC1` [3-(3-cyclopentyloxy-4-methoxybenzyl)-3,7-dihydro-2,6-dithio-1H-purine-2,6-dione], for which the IC50 was 16.2 µM.

With `CCCCn1c(=S)[nH]c(=S)c2[nH]c(C3CC3)nc21` [3-butyl-8-cyclopropyl-3,7-dihydro-2,6-dithio-1H-purine-2,6-dione], the IC50 is 9.43 µM.

Regarding `S=c1[nH]c(=S)n(CC2CC2)c2nc(C3CC3)[nH]c12` [8-cyclopropyl-3-cyclopropylmethyl-3,7-dihydro-2,6-dithio-1H-purine-2,6-dione], the IC50 was determined as 2.27 µM.

Still in this test, the particulars now being: read-out: PDE IV I50.
As to `CCCn1cnc(NC2CCCC2)c2nc(C3CC3)nc1-2` [6-Cyclopentylamino-8-cyclopropyl-3-propyl-3H-purine Hydrochloride], the IC50 was 0.03 µM.

On to `CC(C)c1nc2c([nH]1)c(=S)[nH]c(=S)n2Cc1ccccc1` [3-benzyl-3,7-dihydro-8-(1-methylethyl)-2,6-dithio-1H-purine-2,6-dione], for which the IC50 was found to be 3.4 µM.

As for `CCCn1c(=S)nc(NC2CCCC2)c2[nH]c(C3CC3)nc21` [6-cyclopentylamino-8-cyclopropyl-3,7-dihydro-3-propyl-2-thio-2H-purin-2-one hydrochloride], the IC50 stood at 7.41 µM.

As to `CCCn1c(=S)nc(NCc2ccncc2)c2[nH]c(C3CC3)nc21` [8-cyclopropyl-3,7-dihydro-3-propyl-6-(4-pyridyl-methylamino)-2-thio-2H-purin-2-one], the IC50 was 0.41 µM.

Still in this test, the particulars now being: thioisoguanines, Table 2; cyclic AMP 0.2 μM; read-out: Calc IC50 PDE IV.
Turning to `CCNc1nc(=S)n(CC)c2nc(C3CC3)[nH]c12` [8-cyclopropyl-3-ethyl-6-ethylamino-3,7-dihydro-2-thio-2H-purin-2-one], the IC50 is 13.7 µM.

Take `CC(C)c1nc2c([nH]1)c(NC1CCCC1)nc(=S)n2Cc1ccc(Cl)cc1` [3-(4-chlorobenzyl)-6-cyclopentylamino-3,7-dihydro-8-isopropyl-2-thio-2H-purin-2-one]: the IC50 was 114 µM.

With `CCCn1c(=S)nc(N)c2[nH]c(C3CC3)nc21` [6-amino-8-cyclopropyl-3,7-dihydro-3 propyl-2-thio-2H-purin-2-one], the IC50 was 39.4 µM.

Turning to `CCCNc1nc(=S)n(CC)c2nc(C3CC3)[nH]c12` [8-cyclopropyl-3-ethyl-6-propylamino-2-thio-2H-purin-2-one], the IC50 was 8.48 µM.
